target: Beta-3 Adrenergic Receptor (Homo sapiens (Human), UniProt P13945); assay: Homogeneous Time-Resolved Fluorescence (HTRF) cAMP antagonist assay, IC50 determination; format: cell-based; details: CHO-K1 cells stably expressing recombinant receptor, isoproterenol at EC90
Method in brief: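 Antagonist mode: isoproterenol at its predetermined EC90 added after compound to recombinant CHO-K1 cells in IBMX-containing PBS, 1 h, room temperature. Compounds tested as 5-fold, 10-point dilutions, top final typically 10 or 100 μM. HTRF signal converted to cAMP via standard curve, giving IC50.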

Chain of Beta-3 Adrenergic Receptor (P13945 whole entry, species assumed): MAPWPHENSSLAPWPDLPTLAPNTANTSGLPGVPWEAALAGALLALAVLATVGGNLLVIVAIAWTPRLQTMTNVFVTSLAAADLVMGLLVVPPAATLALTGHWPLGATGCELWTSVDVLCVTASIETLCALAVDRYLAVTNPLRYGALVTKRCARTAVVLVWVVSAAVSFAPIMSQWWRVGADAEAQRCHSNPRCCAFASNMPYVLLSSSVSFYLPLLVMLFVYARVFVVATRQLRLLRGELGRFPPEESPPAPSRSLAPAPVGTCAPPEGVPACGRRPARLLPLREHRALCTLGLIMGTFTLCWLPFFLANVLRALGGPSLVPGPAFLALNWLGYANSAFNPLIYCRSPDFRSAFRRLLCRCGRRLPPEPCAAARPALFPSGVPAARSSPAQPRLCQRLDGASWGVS

SMILES	IC50
CNS(=O)(=O)c1cccc(OC[C@@H](O)CN[C@H]2COC3(CCN(c4cnccn4)CC3)C2)c1 [Compound 586, 3-((S)-2-hydroxy-3-((R)-8-(pyrazin-2-yl)-1-oxa-8-azaspiro[4.5]decan-3-ylamino)propoxy)-N-methylbenzenesulfonamide]	0.762 µM
CNS(=O)(=O)c1cccc(OC[C@@H](O)CNC2COC3(CCN(S(=O)(=O)c4cc(C)ccc4OC)CC3)C2)c1 (stereo partly drawn) [Compound 176, 3-((2S)-2-hydroxy-3-(8-(2-methoxy-5-methylphenylsulfonyl)-1-oxa-8-azaspiro[4.5]decan-3-ylamino)propoxy)-N-methylbenzenesulfonamide]	0.0233 µM
CNS(=O)(=O)c1cccc(OC[C@@H](O)CNC2COC3(CCN(S(=O)(=O)c4cc(Cl)ccc4C#N)CC3)C2)c1 (stereo partly drawn) [Compound 145, 3-((2S)-3-(8-(5-chloro-2-cyanophenylsulfonyl)-1-oxa-8-azaspiro[4.5]decan-3-ylamino)-2-hydroxypropoxy)-N-methylbenzenesulfonamide]	0.0215 µM
CNS(=O)(=O)c1cccc(OC[C@@H](O)CNC2COC3(CCN(S(=O)(=O)c4cccc(-c5ccc(CNCC(C)C)cc5)c4)CC3)C2)c1 (stereo partly drawn) [Compound 319, 3-((2S)-2-hydroxy-3-(8-(4′-((isobutylamino)methyl)biphenyl-3-ylsulfonyl)-1-oxa-8-azaspiro[4.5]decan-3-ylamino)propoxy)-N-methylbenzenesulfonamide]	0.0343 µM
CNS(=O)(=O)c1cccc(OC[C@@H](O)CNC2COC3(CCN(S(=O)(=O)c4cccnc4N4CCOCC4)CC3)C2)c1 (stereo partly drawn) [Compound 442, 3-((2S)-2-hydroxy-3-(8-(2-morpholinopyridin-3-ylsulfonyl)-1-oxa-8-azaspiro[4.5]decan-3-ylamino)propoxy)-N-methylbenzenesulfonamide]	0.367 µM
CNS(=O)(=O)c1cccc(OC[C@@H](O)CN[C@@H]2COC3(CCN(S(=O)(=O)c4ccc5c(c4)N(C)CCO5)CC3)C2)c1 [Compound 299, 3-((S)-2-hydroxy-3-((S)-8-(4-methyl-3,4-dihydro-2H-benzo[b][1,4]oxazin-6-ylsulfonyl)-1-oxa-8-azaspiro[4.5]decan-3-ylamino)propoxy)-N-methylbenzenesulfonamide]	0.0118 µM
CNS(=O)(=O)c1cccc(OC[C@@H](O)CNC2COC3(CCN(S(=O)(=O)c4ccc(NCCO)nc4)CC3)C2)c1 (stereo partly drawn) [Compound 428, 3-((2S)-2-hydroxy-3-(8-(6-(2-hydroxyethylamino)pyridin-3-ylsulfonyl)-1-oxa-8-azaspiro[4.5]decan-3-ylamino)propoxy)-N-methylbenzenesulfonamide]	0.0615 µM
CNS(=O)(=O)c1cccc(OC[C@@H](O)CN[C@H]2COC3(CCN(S(=O)(=O)c4cnc5c(c4)c(Cl)cn5C)CC3)C2)c1 [Compound 513, 3-((S)-3-((R)-8-(3-chloro-1-methyl-1H-pyrrolo[2,3-b]pyridin-5-ylsulfonyl)-1-oxa-8-azaspiro[4.5]decan-3-ylamino)-2-hydroxypropoxy)-N-methylbenzenesulfonamide]	0.00636 µM
CNS(=O)(=O)c1cccc(OC[C@@H](O)CNC2COC3(CCN(S(=O)(=O)c4cccc(-c5cn(C)nc5C(F)(F)F)c4)CC3)C2)c1 (stereo partly drawn) [Compound 62, 3-((2S)-2-hydroxy-3-(8-(3-(1-methyl-3-(trifluoromethyl)-1H-pyrazol-4-yl)phenylsulfonyl)-1-oxa-8-azaspiro[4.5]decan-3-ylamino)propoxy)-N-methylbenzenesulfonamide]	0.0449 µM
CNS(=O)(=O)c1cccc(OC[C@@H](O)CNC2COC3(CCN(S(=O)(=O)c4ccc5oncc5c4)CC3)C2)c1 (stereo partly drawn) [Compound 327, 3-((2S)-3-(8-(benzo[d]isoxazol-5-ylsulfonyl)-1-oxa-8-azaspiro[4.5]decan-3-ylamino)-2-hydroxypropoxy)-N-methylbenzenesulfonamide]	0.0921 µM
CNS(=O)(=O)c1cccc(OC[C@@H](O)CN[C@H]2COC3(CCN(S(=O)(=O)c4cnc5cc(F)ccc5c4O)CC3)C2)c1 [Compound 539, 3-((S)-3-((R)-8-(7-fluoro-4-hydroxyquinolin-3-ylsulfonyl)-1-oxa-8-azaspiro[4.5]decan-3-ylamino)-2-hydroxypropoxy)-N-methylbenzenesulfonamide]	0.026 µM
CCNS(=O)(=O)c1cccc(OC[C@@H](O)CNC2COC3(CCN(S(=O)(=O)c4cccc(-c5ccc(OCC#N)cc5)c4)CC3)C2)c1 (stereo partly drawn) [Compound 213, 3-((2S)-3-(8-(4′-(cyanomethoxy)biphenyl-3-ylsulfonyl)-1-oxa-8-azaspiro[4.5]decan-3-ylamino)-2-hydroxypropoxy)-N-ethylbenzenesulfonamide]	0.0491 µM
CCn1cc(S(=O)(=O)N2CCC3(CC2)C[C@@H](NC[C@H](O)COc2cccc(S(=O)(=O)NC)c2)CO3)c(=O)c2cccc(C)c21 [Compound 545, 3-((S)-3-((R)-8-(1-ethyl-8-methyl-4-oxo-1,4-dihydroquinolin-3-ylsulfonyl)-1-oxa-8-azaspiro[4.5]decan-3-ylamino)-2-hydroxypropoxy)-N-methylbenzenesulfonamide]	0.121 µM
O=S(=O)(NCCF)c1cccc(OC[C@@H](O)CN[C@H]2COC3(CCN(S(=O)(=O)c4cnc5ccccc5c4)CC3)C2)c1 [Compound 394, N-(2-fluoroethyl)-3-((S)-2-hydroxy-3-((R)-8-(quinolin-3-ylsulfonyl)-1-oxa-8-azaspiro[4.5]decan-3-ylamino)propoxy)benzenesulfonamide]	0.0469 µM
CNS(=O)(=O)c1cccc(OC[C@@H](O)CNC2COC3(CCN(S(=O)(=O)c4cccc(-c5ccc(CNCC#N)cc5)c4)CC3)C2)c1 (stereo partly drawn) [Compound 338, 3-((2S)-3-(8-(4′-((cyanomethylamino)methyl)biphenyl-3-ylsulfonyl)-1-oxa-8-azaspiro[4.5]decan-3-ylamino)-2-hydroxypropoxy)-N-methylbenzenesulfonamide]	0.0471 µM
CNS(=O)(=O)c1cccc(OC[C@@H](O)CNC2COC3(CCN(S(=O)(=O)c4ccc5c(c4)CC(=O)N5)CC3)C2)c1 (stereo partly drawn) [Compound 182, 3-((2S)-2-hydroxy-3-(8-(2-oxoindolin-5-ylsulfonyl)-1-oxa-8-azaspiro[4.5]decan-3-ylamino)propoxy)-N-methylbenzenesulfonamide]	0.105 µM
CNS(=O)(=O)c1cccc(OC[C@@H](O)CNC2COC3(CCN(S(=O)(=O)c4ccc(-c5ccc(CN)cc5)cc4OC(F)(F)F)CC3)C2)c1 (stereo partly drawn) [Compound 403, 3-((2S)-3-(8-(4′-(aminomethyl)-3-(trifluoromethoxy)biphenyl-4-ylsulfonyl)-1-oxa-8-azaspiro[4.5]decan-3-ylamino)-2-hydroxypropoxy)-N-methylbenzenesulfonamide]	0.0806 µM
NS(=O)(=O)c1cccc(OC[C@@H](O)CN[C@H]2COC3(CCN(S(=O)(=O)c4cnc5ccccc5c4)CC3)C2)c1 [Compound 562, 3-((S)-2-hydroxy-3-((R)-8-(quinolin-3-ylsulfonyl)-1-oxa-8-azaspiro[4.5]decan-3-ylamino)propoxy)benzenesulfonamide]	0.0163 µM
CNS(=O)(=O)c1cccc(OC[C@@H](O)CN[C@H]2COC3(CCN(S(=O)(=O)c4ccc5ncccc5c4)CC3)C2)c1 [Compound 344, 3-((S)-2-hydroxy-3-((R)-8-(quinolin-6-ylsulfonyl)-1-oxa-8-azaspiro[4.5]decan-3-ylamino)propoxy)-N-methylbenzenesulfonamide]	0.0427 µM
NS(=O)(=O)c1cccc(OC[C@@H](O)CN[C@H]2COC3(CCN(S(=O)(=O)c4c[nH]c5c(F)cccc5c4=O)CC3)C2)c1 [Compound 554, 3-((S)-3-((R)-8-(8-fluoro-4-oxo-1,4-dihydroquinolin-3-ylsulfonyl)-1-oxa-8-azaspiro[4.5]decan-3-ylamino)-2-hydroxypropoxy)benzenesulfonamide]	0.0346 µM
CN1CCOc2ncc(S(=O)(=O)N3CCC4(CC3)C[C@@H](NC[C@H](O)COc3cccc(S(=O)(=O)NCC(F)F)c3)CO4)cc21 [Compound 461, N-(2,2-difluoroethyl)-3-((S)-2-hydroxy-3-((R)-8-(1-methyl-2,3-dihydro-1H-pyrido[2,3-b][1,4]oxazin-7-ylsulfonyl)-1-oxa-8-azaspiro[4.5]decan-3-ylamino)propoxy)benzenesulfonamide]	0.0319 µM
CNS(=O)(=O)c1cccc(OC[C@@H](O)CN[C@@H]2COC3(CCN(S(=O)(=O)c4cnn(-c5ccccc5)c4C)CC3)C2)c1 [Compound 280, 3-((S)-2-hydroxy-3-((S)-8-(5-methyl-1-phenyl-1H-pyrazol-4-ylsulfonyl)-1-oxa-8-azaspiro[4.5]decan-3-ylamino)propoxy)-N-methylbenzenesulfonamide]	0.098 µM
CNS(=O)(=O)c1cccc(OC[C@@H](O)CNC2COC3(CCN(S(=O)(=O)c4ccc(-c5cc(C(F)(F)F)nn5C)s4)CC3)C2)c1 (stereo partly drawn) [Compound 191, 3-((2S)-2-hydroxy-3-(8-(5-(1-methyl-3-(trifluoromethyl)-1H-pyrazol-5-yl)thiophen-2-ylsulfonyl)-1-oxa-8-azaspiro[4.5]decan-3-ylamino)propoxy)-N-methylbenzenesulfonamide]	0.0809 µM
CNS(=O)(=O)c1cccc(OC[C@@H](O)CNC2COC3(CCN(S(=O)(=O)c4cc(-c5ccc(CN)cc5)ccc4C)CC3)C2)c1 (stereo partly drawn) [Compound 365, 3-((2S)-3-(8-(4′-(aminomethyl)-4-methylbiphenyl-3-ylsulfonyl)-1-oxa-8-azaspiro[4.5]decan-3-ylamino)-2-hydroxypropoxy)-N-methylbenzenesulfonamide]	0.0207 µM
CNS(=O)(=O)c1cccc(OC[C@@H](O)CN[C@H]2COC3(CCN(S(=O)(=O)c4cc5c(nc4C)OCCN5C)CC3)C2)c1 [Compound 466, 3-((S)-3-((R)-8-(1,6-dimethyl-2,3-dihydro-1H-pyrido[2,3-b][1,4]oxazin-7-ylsulfonyl)-1-oxa-8-azaspiro[4.5]decan-3-ylamino)-2-hydroxypropoxy)-N-methylbenzenesulfonamide]	0.101 µM

Reference: patent publication US11987588B2, “Modulators of the beta-3 adrenergic receptor useful for the treatment or prevention of heart failure and disorders related thereto” (Arena Pharmaceuticals, Inc., priority 2017, dated 2024)
